Key:
Test in all cases: drug sensitivity score (DSS3, normalised partial AUC of % inhibition dose-response) (DSS (score)); higher = more sensitive (stronger inhibition of viability); extreme values may be limits of the assay
[1] = tested on: FMOC09 (patient-derived high-grade serous ovarian cancer cells); settings: 72 h; library: FO5A; assay format: 2D, 384-well, CellTiter-Glo
Method in brief: (§1)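 Early-passage (under 10) patient-derived ovarian cancer cells were dispensed onto 384-well flat clear-bottom plates pre-plated with compounds at five concentrations spanning a 10,000-fold range, then incubated 72 h at 37 °C, 5% CO2. Viability was read with CellTiter-Glo, and the data were processed in Breeze. The drug sensitivity score is a partial area under the percent-inhibition dose-response curve divided by the log of the upper asymptote, with higher values meaning greater sensitivity.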

[2] = tested on: FMOC14 (patient-derived high-grade serous ovarian cancer cells); settings: 72 h; library: FO5A; assay format: 2D, 384-well, CellTiter-Glo
Method in brief: as §1

[3] = tested on: FMOC03 (patient-derived mucinous ovarian cancer cells); settings: 72 h; library: FO5A; assay format: 2D, 384-well, CellTiter-Glo
Method in brief: as §1

[4] = tested on: FMOC24 (patient-derived high-grade serous ovarian cancer cells); settings: 72 h; library: FO5A; assay format: 2D, 384-well, CellTiter-Glo
Method in brief: as §1

[5] = tested on: FMOC22 (patient-derived mucinous ovarian cancer cells); settings: 72 h; library: FO5A; assay format: 2D, 384-well, CellTiter-Glo
Method in brief: as §1

[6] = tested on: FMOC25_1 (patient-derived low-grade serous ovarian cancer cells); settings: 72 h; library: FO4B; assay format: 2D, 384-well, CellTiter-Glo
Method in brief: as §1

[7] = tested on: FMOC02_3 (patient-derived low-grade serous ovarian cancer cells); settings: 72 h; library: FO5A; assay format: 2D, 384-well, CellTiter-Glo
Method in brief: as §1

[8] = tested on: FMOC25_2 (patient-derived low-grade serous ovarian cancer cells); settings: 72 h; library: FO5A; assay format: 2D, 384-well, CellTiter-Glo
Method in brief: as §1

[9] = tested on: FMOC02_2 (patient-derived low-grade serous ovarian cancer cells); settings: 72 h; library: FO5A; assay format: 2D, 384-well, CellTiter-Glo
Method in brief: as §1

[10] = tested on: FMOC06 (patient-derived mucinous ovarian cancer cells); settings: 72 h; library: FO5A; assay format: 2D, 384-well, CellTiter-Glo
Method in brief: as §1

SMILES | drug sensitivity score [1] | drug sensitivity score [2] | drug sensitivity score [3] | drug sensitivity score [4] | drug sensitivity score [5] | drug sensitivity score [6] | drug sensitivity score [7] | drug sensitivity score [8] | drug sensitivity score [9] | drug sensitivity score [10]
C#Cc1cccc(Nc2ncnc3cc4c(cc23)OCCOCCOCCO4)c1 [Icotinib] | 8 | 2.1 | 9.7 | 1 | 1.8 | 9 | 10.7 | 7.1 | 11.2 | 3.4
CC(=O)[C@]1(O)Cc2c(O)c3c(c(O)c2[C@@H](O[C@H]2C[C@H](N)[C@H](O)[C@H](C)O2)C1)C(=O)c1ccccc1C3=O [Idarubicin] | 6.3 | 6.1 | 4.8 | 9.4 | 7 | 9.2 | 9.1 | 9.1 | 7.8 | 5.8
COc1cc(C(=O)O)ccc1NC(=O)[C@@H]1N[C@@H](CC(C)(C)C)[C@](C#N)(c2ccc(Cl)cc2F)[C@H]1c1cccc(Cl)c1F [Idasanutlin] | 2 | 2.5 | 2.6 | 1.9 | 3.6 | 10.5 | 22.7 | 16.6 | 18.5 | 5.3
O=C(Nc1ccncc1)C(=O)c1cn(Cc2ccc(Cl)cc2)c2ccccc12 [Indibulin] | 4.7 | 0 | 4.3 | 6 | 3.4 | 5.5 | 9.6 | 9.2 | 10.9 | 1.3
CC(C)NC[C@@H](C(=O)N1CCN(c2ncnc3c2[C@H](C)C[C@H]3O)CC1)c1ccc(Cl)cc1 [Ipatasertib] | 0.1 | 2.8 | 1 | 3 | 2.1 | 7 | 14.3 | 7.4 | 7.8 | 4
NC(=O)N1CCC(CC(=O)N2CCC([C@H]3c4ncc(Br)cc4CCc4cc(Cl)cc(Br)c43)CC2)CC1 [Lonafarnib] | 7 | 10.3 | 9.8 | 7.5 | 15.1 | 2.7 | 0 | 9.8 | 6.6 | 12.1
CCNC(=O)c1noc(-c2cc(C(C)C)c(O)cc2O)c1-c1ccc(CN2CCOCC2)cc1 [Luminespib] | 16.9 | 13 | 10.8 | 9.4 | 13.2 | 10.9 | 23 | 23.6 | 19.8 | 3.2
O=C(Nc1cccc(NC(=O)c2cccc(O)c2O)c1)c1cccc(O)c1O [MST-312] | 9.7 | 8.2 | 6.2 | 5.55 | 10.1 | 4.5 | 7.7 | 2.4 | 2.7 | 5.7
CCN(CC)CCCC(C)Nc1c2ccc(Cl)cc2nc2ccc(OC)cc12 (stereo not given) [Mepacrine] | 10.3 | 9.8 | 9.5 | 20.2 | 9.2 | 10.3 | 19.4 | 10.9 | 19.4 | 10
S=c1[nH]cnc2nc[nH]c12 [Mercaptopurine] | 0 | 0 | 0 | 0.85 | 0 | 1.6 | 0 | 1.8 | 0.2 | 0.3
CN(Cc1cnc2nc(N)nc(N)c2n1)c1ccc(C(=O)N[C@@H](CCC(=O)O)C(=O)O)cc1 [Methotrexate] | 0 | 0 | 0 | 0 | 0 | 0 | 0 | 0.2 | 0 | 0
CO[C@@H]1[C@H](N(C)C(=O)c2ccccc2)C[C@H]2O[C@]1(C)n1c3ccccc3c3c4c(c5c6ccccc6n2c5c31)C(=O)NC4 [Midostaurin] | 10.6 | 3 | 5 | 9.3 | 4.5 | 14.5 | 16.9 | 21.2 | 21.7 | 9.1
CNC(=O)c1nn(C)c2c1C(C)(C)Cc1cnc(Nc3ccc(N4CCN(C)CC4)cc3)nc1-2 [Milciclib] | 7.6 | 6.3 | 8.6 | 8.25 | 6.2 | 8.5 | 15.1 | 13.1 | 12.5 | 6.8
O=C1c2c(O)ccc(O)c2C(=O)c2c(NCCNCCO)ccc(NCCNCCO)c21 [Mitoxantrone] | 8.8 | 3.2 | 2.7 | 3.45 | 6 | 0.3 | 5.9 | 7 | 4 | 1.9
Nc1ccccc1NC(=O)c1ccc(CNc2nccc(-c3cccnc3)n2)cc1 [Mocetinostat] | 3.7 | 10.1 | 11.1 | 11.4 | 8 | 9.6 | 11.2 | 9.2 | 12.6 | 10.9
N#CCNC(=O)c1ccc(-c2ccnc(Nc3ccc(N4CCOCC4)cc3)n2)cc1 [Momelotinib] | 1.2 | 1.7 | 2.4 | 5.95 | 3.2 | 5.4 | 9.9 | 9.3 | 6 | 2.7
Cc1cc(OCc2nnc(SC3CCCC3)n2-c2cccnc2)ccc1-c1ccc(S(C)(=O)=O)cc1 [NMS-873] | 5.3 | 9.2 | 9 | 9.15 | 8.8 | 8.9 | 10 | 9.6 | 8.3 | 8

SMILES | drug sensitivity score [1] | drug sensitivity score [2] | drug sensitivity score [3] | drug sensitivity score [4] | drug sensitivity score [5] | drug sensitivity score [6] | drug sensitivity score [7] | drug sensitivity score [8] | drug sensitivity score [9] | drug sensitivity score [10]
COc1ccc(-c2ccc3ncc4c(c3c2)n(-c2ccc(N3CCNCC3)c(C(F)(F)F)c2)c(=O)n4C)cn1 [NVP-BGT226] | 11.9 | 14.9 | 17.4 | 10.7 | 14.4 | 27.5 | 27 | 26.7 | 24.7 | 15.2
CC1(C)CCC(c2ccc(Cl)cc2)=C(CN2CCN(c3ccc(C(=O)NS(=O)(=O)c4ccc(N[C@H](CCN5CCOCC5)CSc5ccccc5)c(S(=O)(=O)C(F)(F)F)c4)cc3)CC2)C1 [Navitoclax] | 0 | 7.3 | 6.9 | 21.1 | 4.8 | 14.7 | 21.9 | 23.2 | 21.7 | 6.6
CCOc1cc2ncc(C#N)c(Nc3ccc(OCc4ccccn4)c(Cl)c3)c2cc1NC(=O)/C=C/CN(C)C [Neratinib] | 9.8 | 2.5 | 12.3 | 1.1 | 2.3 | 8.7 | 18.3 | 16.5 | 14.1 | 2.2
COC(=O)c1ccc2c(c1)NC(=O)/C2=C(\Nc1ccc(N(C)C(=O)CN2CCN(C)CC2)cc1)c1ccccc1 [Nintedanib] | 4.6 | 3.3 | 1.8 | 5.85 | 0.6 | 0 | 11.7 | 2.1 | 8.3 | 4.5
O=C(c1cc(Cc2n[nH]c(=O)c3ccccc23)ccc1F)N1CCN(C(=O)C2CC2)CC1 [Olaparib] | 3.2 | 4.4 | 1.4 | 4.6 | 2.4 | 3 | 5 | 3.2 | 1.7 | 3.6
COC(=O)C[C@](O)(CCCC(C)(C)O)C(=O)O[C@@H]1C(OC)=C[C@]23CCCN2CCc2cc4c(cc2[C@H]13)OCO4 [Omacetaxine] | 19.1 | 21.9 | 16.7 | 23.6 | 15.3 | 23.8 | 23.8 | 24.6 | 20.2 | 19
COc1ncc(-c2ccc3nccc(-c4ccnnc4)c3c2)cc1NS(=O)(=O)c1ccc(F)cc1F [Omipalisib] | 19.1 | 15.2 | 18.4 | 8.5 | 13.9 | 24.2 | 23.9 | 22.1 | 24.2 | 20.6
CC(C)c1cc(C(=O)N2Cc3ccc(CN4CCN(C)CC4)cc3C2)c(O)cc1O [Onalespib] | 9 | 9 | 12.2 | 5.45 | 8.1 | 12 | 14 | 15.4 | 12.6 | 6
COC[C@H](NC(=O)c1cnc(C)s1)C(=O)N[C@@H](COC)C(=O)N[C@@H](Cc1ccccc1)C(=O)[C@@]1(C)CO1 [Oprozomib] | 10.6 | 19.5 | 17.3 | 20.9 | 16.6 | 14.6 | 15.1 | 20.4 | 13.1 | 12.9
C=CC(=O)Nc1cc(Nc2nccc(-c3cn(C)c4ccccc34)n2)c(OC)cc1N(C)CCN(C)C [Osimertinib] | 11.3 | 6.1 | 11.7 | 4.35 | 3.3 | 7.3 | 12 | 11.2 | 15 | 4
O=C(O)C(=O)O.[NH-][C@@H]1CCCC[C@H]1[NH-].[Pt+2] [Oxaliplatin] | 14.9 | 6.8 | 8.8 | 11.3 | 9.6 | 8.9 | 9.9 | 5.7 | 7.5 | 7
COc1ccccc1S(=O)(=O)Nc1ccc2c(c1)CN(C)C(=O)N2 [PFI-1] | 3.2 | 1.2 | 2.9 | 3.2 | 3.6 | 1.1 | 7.1 | 5.7 | 5.3 | 3.6
CN1CCN(c2cc(C(=O)Nc3ccc4c(c3)-c3c(c(C(N)=O)nn3-c3ccc(F)cc3)CC4)c(Cl)cn2)CC1 [PHA 408] | 4.8 | 4 | 5.2 | 9 | 4.6 | 0.6 | 6.8 | 11 | 4 | 4.6
COc1cc(Br)c(Nc2nc(-c3c(C)nc4ncccn34)cs2)c(Br)c1 [PTC-209] | 6 | 2.7 | 4.6 | 1.35 | 4.5 | 6.3 | 4.6 | 8.4 | 5.5 | 3.5
CC(=O)O[C@H]1C(=O)[C@@]2(C)[C@H]([C@H](OC(=O)c3ccccc3)[C@]3(O)C[C@H](OC(=O)[C@H](O)[C@@H](NC(=O)c4ccccc4)c4ccccc4)C(C)=C1C3(C)C)[C@]1(OC(C)=O)CO[C@@H]1C[C@@H]2O [Paclitaxel] | 13.6 | 0.4 | 11.9 | 0.1 | 12.5 | 6.7 | 17 | 16.7 | 8.7 | 10.1
C1=N/C2=N/c3ccc(OCCN4CCCC4)c(c3)COC/C=C/COCc3cccc(c3)C(=C1)N2 [Pacritinib] | 5.5 | 5.2 | 6.7 | 7.95 | 6.2 | 7.8 | 15.2 | 15.2 | 10.1 | 7.6
Cc1[nH]c2ccccc2c1CCNCc1ccc(/C=C/C(=O)NO)cc1 [Panobinostat] | 5.5 | 15.4 | 11.1 | 13.3 | 9.1 | 11.2 | 10.7 | 15.2 | 12.6 | 12.8
